# Measurements published in patent US20070072830A1, “Methods for treating diabetes” (Point Therapeutics, Inc., priority 2004, published 2007).
# Read-outs that look alike come from different tables or passages of the source.
# Assays:
# Lewis rats = system: Lewis rats
# Procedure: (§1) Serum DPP-IV inhibition and observation of acute toxicity of amino boronic dipeptides in Lewis rats. […] After observations were completed or at the onset of a moribund state, humane euthanasia was performed by asphyxiation in 100% CO2.
# [1] = target: T1, soluble recombinant human DPP-IV (Homo sapiens, UniProt P27487); test: In vitro inhibition of recombinant soluble DPP-IV by amino boronic dipeptides; assay type: biochemical; conditions: assayed at 3 minutes, 78 minutes and 16 hours after addition of Ala-Pro-AFC
# T1 construct: immunoglobulin kappa light chain secretion signal (pSecTag2-B) (N, cleaved yes); made in house; host or cells: 293T cells, transient transfection; culture supernatant used unpurified
# T1 sequence (P27487 39-766): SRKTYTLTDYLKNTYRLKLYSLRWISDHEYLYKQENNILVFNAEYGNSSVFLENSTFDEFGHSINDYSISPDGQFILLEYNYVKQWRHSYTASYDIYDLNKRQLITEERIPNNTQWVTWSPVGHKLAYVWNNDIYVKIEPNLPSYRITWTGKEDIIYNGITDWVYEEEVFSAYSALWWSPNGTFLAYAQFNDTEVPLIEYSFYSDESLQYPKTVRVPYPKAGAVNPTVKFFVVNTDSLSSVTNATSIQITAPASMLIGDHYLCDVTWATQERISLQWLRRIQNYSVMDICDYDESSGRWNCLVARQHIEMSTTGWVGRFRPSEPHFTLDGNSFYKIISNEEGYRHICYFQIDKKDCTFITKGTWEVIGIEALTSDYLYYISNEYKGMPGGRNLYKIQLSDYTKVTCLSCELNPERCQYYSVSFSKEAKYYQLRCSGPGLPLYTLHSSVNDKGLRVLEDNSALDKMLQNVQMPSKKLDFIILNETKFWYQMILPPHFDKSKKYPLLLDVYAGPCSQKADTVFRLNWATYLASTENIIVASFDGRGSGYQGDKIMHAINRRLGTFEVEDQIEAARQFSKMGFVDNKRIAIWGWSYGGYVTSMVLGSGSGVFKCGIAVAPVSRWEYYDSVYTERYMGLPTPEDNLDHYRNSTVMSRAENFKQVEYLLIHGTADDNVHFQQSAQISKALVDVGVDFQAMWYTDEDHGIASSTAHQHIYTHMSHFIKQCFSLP
# Description: Production of soluble recombinant human DPP-IV. Based on information on the N-terminus of serum DPP-IV (15), a truncated DPP-IV was engineered in which a signal/leader sequence was joined to the residue in DPP-IV corresponding to the N-terminus of serum DPP-IV to allow secretion. The cDNA encoding the desired truncated human DPP-IV dimer enzyme was engineered into the mammalian secretion vector pSecTag2 (Cat# V900-20, InVitrogen Corporation). The vector, available in A, B or C versions, representing three possible phases for gene fusion, contained an immunoglobulin-kappa light chain secretion signal followed by a selection of restriction sites for gene insertion. The fusion required engineering a restriction site upstream of the chosen fusion amino acid in the 5′ end of the DPP-IV dimer enzyme nucleic acid in phase with the chosen restriction site (Sfi I) in the vector secretion sequence. The chosen fusion amino acid in the 5′ end of the DPP-IV (Ser39) was 3′ of the trans-membrane anchoring domain. The pSecTag2 version B and its Sfi I restriction site was chosen for the fusion because it minimizes the additional N-terminal, vector-encoded residues in the mature secreted protein.
# Construction of the fusion was as follows. First, total RNA was isolated from the Caco-2 colorectal carcinoma cell line (ATCC HTB-37) by standard Trizol/phenol /chloroform methodology. The purified RNA (approx. 2.5 μg in a 20 μl reaction) was used to make cDNA using oligo-dT primer and a commercial reverse transcription (RT) kit (InVitrogen). […] The following thermal cycler program was used: 94° C. for 45 sec. initial denaturation, then 30 cycles of 94° C., 10 sec.; 48° C., 6 sec.; 60° C., 4 min; followed by 5-min. extension at 72° C. after cycling.
# DNA from the plasmid encoding DPP-IV dimer enzyme was prepared on an approximately 400 μg scale from overnight 30 ml cultures in Luria broth with 100 μg ampicillin per ml using a commercial kit (Qiagen Maxiprep Kit).
# In vitro assay of enzymatic activity of recombinant soluble DPP-IV and inhibition by amino boronic dipeptides. The assay reaction mixture consisted of 135 μl 50 mM HEPES/Na buffer pH 7.6, 140 mM NaCl, 10-15 μl enzyme-containing culture supernatant, dipeptide substrate Ala-Pro-(7-amino-4-trifluoromethyl coumarin) (Ala-Pro-AFC; Enzyme System Products, Dublin, Calif.) at typically 0.1-1 mM added from a 100 or 400 mM stock in dimethyl formamide. The reaction mixture was incubated at room temperature, and production of the fluorescent AFC product was measured in a fluorometer (excitation, 400 nm; emission 505 nm), either by continuous monitoring or after termination with a one to one-tenth volume of 1-M sodium acetate, pH 4.5. Fluorometric reading were made with a […] Spectra Max GeminiXS capable of reading 96-well microtiter plates. The inhibitory activity of amino boronic dipeptides was investigated by preincubation of assay reaction mixtures with varying concentrations of each compound for 10 minutes before the addition of the substrate Ala-Pro-AFC.
# serum DPP-IV [2] = target: T2, serum DPP-IV (Mus musculus, UniProt P28843); test: Serum DPP-IV inhibition in vivo in BALB/c mice after oral gavage; conditions: 2 hours
# T2 construct: from tissue; host or cells: serum of BALB/c mice dosed orally
# T2 sequence (P28843 37-760 limits assumed): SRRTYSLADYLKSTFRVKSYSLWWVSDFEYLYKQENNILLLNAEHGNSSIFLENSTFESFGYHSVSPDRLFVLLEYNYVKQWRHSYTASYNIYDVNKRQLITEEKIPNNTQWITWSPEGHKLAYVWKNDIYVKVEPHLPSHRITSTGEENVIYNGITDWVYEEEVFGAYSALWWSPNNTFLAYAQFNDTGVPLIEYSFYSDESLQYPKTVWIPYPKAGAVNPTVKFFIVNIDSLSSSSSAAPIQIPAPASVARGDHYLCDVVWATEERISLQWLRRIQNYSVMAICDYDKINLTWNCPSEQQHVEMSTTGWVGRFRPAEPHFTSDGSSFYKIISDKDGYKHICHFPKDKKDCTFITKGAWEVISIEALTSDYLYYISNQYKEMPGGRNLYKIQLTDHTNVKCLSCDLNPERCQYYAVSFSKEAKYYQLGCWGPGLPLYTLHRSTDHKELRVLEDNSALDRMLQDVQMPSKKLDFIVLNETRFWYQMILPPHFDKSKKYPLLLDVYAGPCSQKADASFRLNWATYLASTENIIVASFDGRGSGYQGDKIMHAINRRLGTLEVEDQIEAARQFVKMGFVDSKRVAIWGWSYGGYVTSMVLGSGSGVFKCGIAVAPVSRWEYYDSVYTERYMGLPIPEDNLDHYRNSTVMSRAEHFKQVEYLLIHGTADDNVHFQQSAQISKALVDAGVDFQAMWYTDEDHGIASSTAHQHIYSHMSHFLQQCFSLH
# Procedure: (§2) Assay of serum DPP-IV inhibition in vivo.
# (§3) Assay ofserum DPP-IV inhibition and KC/CXCL1 levels in vivo. […] Each mouse received a single administration of each amino boronic dipeptide or saline, and blood samples were withdrawn from mice 2 hours later.
# Serum DPP-IV activity was determined by reaction of a 10 μl volume of serum with 0.1 mM Ala-Pro-AFC (Enzyme System Products, Dublin, Calif.) in a 100 μl volume of 50 mM HEPES/Na buffer pH 7.6, 140 mM NaCl. […] Serum DPP-IV activity was expressed as fluorescent units (FU).
# serum KC/CXCL1 = test: Serum KC/CXCL1 levels in vivo in BALB/c mice; conditions: 0.2-200 μg/mouse oral, 2 hours
# Procedure: as §3
# Serum concentration of mouse KC/CXCL1 was determined by Quantikine enzyme-linked immunosorbent assay (ELISA; R&D Systems, Minneapolis, Minn.) according to the manufacturer's instructions. ELISA was performed in duplicate for each sample.
# ob/ob mice = test: Mouse oral glucose tolerance test (OGTT); assay type: in vivo
# Procedure: Protocol for mouse oral glucose tolerance test (OGTT). The day of oral-glucose challenge was defined as day 0. […] Agents were administered by oral gavage. Mice were restricted to a diet of 50% of their individual calculated food intake from day −1 onwards. On day 0, blood glucose was measured at t−15 min. immediately followed by drug administration. At time point 0, glucose was administered by oral gavage (1 g/kg), and blood glucose was measured at time points 0, 30, 60, 120 and 240 minutes. Means±SE were calculated from the data of individual mice in drug-treatment groups 1 and 2.
# Zucker fa/fa rats = test: Rat oral glucose tolerance test (OGTT): glucose, insulin, GLP-1; assay type: in vivo; conditions: 10 μmol/kg oral
# Description: Protocol for rat oral glucose tolerance test (OGTT). […] On days −11 to −8, rats were fitted with intra-arterial catheters under light isoflurane anesthesia. […] From 12:00 a.m.
# [3] = system: human bone marrow stromal cells; test: G-CSF supernatant levels in human bone marrow stromal cell cultures; assay type: cell-based; conditions: 1 to 10^4 nM, 24 hours in vitro
# Procedure: Human bone marrow stromal cell cultures. Samples of normal human bone marrow were purchased from Cambrex Bioproducts (Walkersville, Md.) and mononuclear cells were purified over Ficoll-Hypaque (Nycomed, Oslo, Norway). Human stromal layers were established by seeding 4×10^7 mononuclear cells into T75 flasks (Coming) containing 20 ml MyeloCult medium (Stem Cell Technologies, Vancouver, BC) supplemented with 10^−6 M hydrocortisone (Sigma) and incubation at 37° C. in 100% humidified 5% CO2 in air. After one week, half the medium was exchanged, and the cultures incubated for approximately one week more, after which time, a semi-confluent cell layer was formed. Stromal cells were harvested by trypsinization using standard technique and 10^5 cells/well were seeded in multi-well plates in 1 ml of fully supplemented DMEM (InVitrogen, Carlsbad, Calif.). […] Multiwell cultures without the addition of amino boronic dipeptides served as controls. […] Supernatant concentrations of human G-CSF were determined by Quantikine enzyme-linked immunosorbent assay (ELISA; R&D Systems, Minneapolis, Minn.) according to the manufacturer's instructions. […] The effect of each amino boronic dipeptide on the level of supernatant G-CSF was determined by calculating a stimulation index (SI): SI=(mean G-CSF concentration in culture with amino boronic dipeptide)/(mean G-CSF concentration in control culture).
# serum DPP-IV [4] = target: T3, serum DPP-IV (Rattus norvegicus, UniProt P14740); test: Serum DPP-IV inhibition in Lewis rats; assay type: in vivo; conditions: single oral administration, 2 hours
# T3 construct: from tissue; host or cells: serum of Lewis rats dosed in vivo
# T3 sequence (P14740 37-767 limits assumed): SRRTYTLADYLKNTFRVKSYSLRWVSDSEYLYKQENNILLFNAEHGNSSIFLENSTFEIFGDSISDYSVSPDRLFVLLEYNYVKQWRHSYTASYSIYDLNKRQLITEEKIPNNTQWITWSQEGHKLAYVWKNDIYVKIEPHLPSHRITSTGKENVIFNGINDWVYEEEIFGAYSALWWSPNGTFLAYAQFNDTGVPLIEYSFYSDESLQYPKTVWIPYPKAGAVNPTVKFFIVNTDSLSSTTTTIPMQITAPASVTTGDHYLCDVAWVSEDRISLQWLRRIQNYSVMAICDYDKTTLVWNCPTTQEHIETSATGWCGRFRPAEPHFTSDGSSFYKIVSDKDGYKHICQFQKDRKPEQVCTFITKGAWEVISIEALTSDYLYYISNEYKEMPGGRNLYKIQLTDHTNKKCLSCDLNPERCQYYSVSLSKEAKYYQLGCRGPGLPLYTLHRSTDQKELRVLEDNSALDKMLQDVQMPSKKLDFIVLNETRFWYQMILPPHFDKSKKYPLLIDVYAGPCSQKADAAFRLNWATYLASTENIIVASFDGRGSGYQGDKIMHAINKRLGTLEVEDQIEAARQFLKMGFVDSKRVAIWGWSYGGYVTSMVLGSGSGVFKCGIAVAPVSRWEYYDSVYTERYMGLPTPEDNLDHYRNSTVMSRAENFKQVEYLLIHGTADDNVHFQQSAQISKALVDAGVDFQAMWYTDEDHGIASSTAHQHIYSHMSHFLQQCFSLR
# Procedure: as §2, §1
# [5] = Lewis rats, single dose, observed 5 days
Compound,MTD (maximum tolerated dose) (Lewis rats; [5]),Persistence / reversibility of DPP-IV inhibition [1],Effect on serum levels of KC/CXCL1 (serum KC/CXCL1),also measured
C[C@@H](O)[C@H](N)C(=O)N1CCC[C@H]1B(O)O [Thr-boroPro],800 µg/kg,–,–,–
O=C(C1CCCN1)N1CCCC1B(O)O (stereo not drawn) [Pro-boroPro],"≧2,000 μg/kg",more rapidly reversible,–,–
N[C@@H](CCC(=O)O)C(=O)N1CCC[C@H]1B(O)O [Glu-boroPro],–,sustained DPP-IV inhibition,failed to affect serum levels of KC/CXCL1 at any of the doses tested,"Inhibition of serum DPP-IV activity (serum DPP-IV [2]; 20 and 200 μg doses per mouse, oral): maximally inhibited serum DPP-IV activity; ID50 (dose required to reduce serum DPP-IV activity by 50% of baseline) (serum DPP-IV [2]; BALB/c mice, single oral dose): 1 μg/mouse; MTD (maximum tolerated dose) (Lewis rats; Lewis, rat, in vivo, 5 days): 15,000 μg/kg; Glucose excursion post oral glucose challenge (ob/ob mice; 1.0 μmol/kg oral, 15 minutes prior to glucose 1 g/kg): reduced; Anti-glycemic effect (area under the blood glucose curve) (ob/ob mice; single 1.0 μmol/kg dose, ANOVA): significant (P=0.0010); Blood plasma level of GLP-1 following oral glucose challenge (Zucker fa/fa rats): increased; Blood plasma level of insulin following oral glucose challenge (Zucker fa/fa rats): increased; Blood glucose excursion after oral glucose challenge (Zucker fa/fa rats; glucose 2 g/kg): reduced"
CC(C)C[C@H](N)C(=O)N1CCC[C@H]1B(O)O [Leu-boroPro],200 µg/kg,more rapidly reversible,stimulate increased serum levels of KC/CXCL1 in a dose-dependent manner,Stimulation of G-CSF levels in culture supernatants (stimulation index) [3]: stimulate increased levels of G-CSF
CC[C@H](C)[C@H](N)C(=O)N1CCC[C@H]1B(O)O [Ile-boroPro],120 µg/kg,sustained DPP-IV inhibition,stimulate increased serum levels of KC/CXCL1 in a dose-dependent manner,Stimulation of G-CSF levels in culture supernatants (stimulation index) [3]: stimulate increased levels of G-CSF
NC(N)=NCCC[C@H](N)C(=O)N1CCC[C@H]1B(O)O [Arg-boroPro],"≧2,000 μg/kg",more rapidly reversible,–,–
NC(=O)CC[C@H](N)C(=O)N1CCC[C@H]1B(O)O [Gln-boroPro],≧800 μg/kg,–,–,–
N[C@@H](CO)C(=O)N1CCC[C@H]1B(O)O [Ser-boroPro],"4,000 μg/kg",–,–,–
CSCC[C@H](N)C(=O)N1CCC[C@H]1B(O)O [Met-boroPro],160 µg/kg,–,–,–
CC(C)[C@H](N)C(=O)N1CCC[C@H]1B(O)O [Val-boroPro],20 µg/kg,–,stimulate increased serum levels of KC/CXCL1 in a dose-dependent manner,ID50 (dose causing a 50% reduction in serum DPP-IV activity from baseline) (serum DPP-IV [4]): 0.009 mg/kg
C[C@H](N)C(=O)N1CCC[C@H]1B(O)O [Ala-boroPro],"≧2,000 μg/kg",–,–,–
N[C@@H](Cc1ccccc1)C(=O)N1CCC[C@H]1B(O)O [Phe-boroPro],–,more rapidly reversible,–,–
NCCCC[C@H](N)C(=O)N1CCC[C@H]1B(O)O [Lys-boroPro],"≧2,000 μg/kg",more rapidly reversible,–,–
